From article PMC5012913 (Analytical biochemistry, 2016)
Values after ≈ are worked out from the molar mass of the structure shown. “Also recorded” adds a separate entry of the source. Like-named read-outs stand apart in the source and are kept apart here.

Columns and labels:
WecA = conditions: cited from earlier work
[1] = target: WecA enzyme (P-60 from E. coli B21WecA) (Escherichia coli, UniProt P0AC78); assay: biochemical; assay type: biochemical
M. smegmatis WecA (P-60) = M. smegmatis WecA (P-60) (Mycolicibacterium smegmatis, UniProt A0R211); assay: Kinetic parameter evaluation via WecA activity assay; assay type: biochemical; conditions: for Vmax for C50-P-P-Glucosamine-C6-FITC synthesis: crude membrane P-60, Michaelis-Menten plot
[2] = system: intracellular Mtb CDC1551-tdTomato in J774A.1 cells; assay: Killing effect against intracellular M. tuberculosis in J774A.1 macrophages; assay type: cell-based
M. smegmatis WecA = target: T1, M. smegmatis WecA (Mycolicibacterium smegmatis, UniProt A0R211); assay type: biochemical
T1 sequence (A0R211 1-406): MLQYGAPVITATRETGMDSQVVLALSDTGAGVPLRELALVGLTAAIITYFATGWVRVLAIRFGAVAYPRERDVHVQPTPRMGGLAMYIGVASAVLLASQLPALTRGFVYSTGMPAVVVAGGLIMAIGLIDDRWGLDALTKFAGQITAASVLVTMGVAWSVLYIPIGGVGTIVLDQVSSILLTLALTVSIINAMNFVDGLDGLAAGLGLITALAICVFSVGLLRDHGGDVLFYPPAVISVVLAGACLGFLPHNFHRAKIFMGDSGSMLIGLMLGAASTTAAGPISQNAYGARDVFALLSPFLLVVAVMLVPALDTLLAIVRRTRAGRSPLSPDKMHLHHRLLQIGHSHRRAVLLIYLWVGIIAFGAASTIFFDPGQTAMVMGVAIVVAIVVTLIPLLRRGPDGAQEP

MurX = target: T2, MurX (Mycolicibacterium smegmatis, UniProt A0R019); conditions: cited from earlier work
T2 sequence (A0R019 1-359): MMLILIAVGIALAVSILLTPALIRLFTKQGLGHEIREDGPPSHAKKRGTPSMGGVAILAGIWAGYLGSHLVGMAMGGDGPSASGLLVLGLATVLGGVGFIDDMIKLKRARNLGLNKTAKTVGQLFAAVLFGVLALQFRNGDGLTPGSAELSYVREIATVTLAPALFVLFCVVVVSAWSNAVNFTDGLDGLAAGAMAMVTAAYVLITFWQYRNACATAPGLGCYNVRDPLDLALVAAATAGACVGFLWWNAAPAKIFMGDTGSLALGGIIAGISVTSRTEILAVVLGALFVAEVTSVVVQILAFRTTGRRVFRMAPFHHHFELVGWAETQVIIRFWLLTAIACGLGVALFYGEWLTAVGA

M. tuberculosis = assay: MIC determination against replicating Mtb; assay type: cell-based, Mycobacterium tuberculosis (H37Rv); conditions: aerobic
non-replicating Mtb = assay: Wayne model under low-oxygen conditions; assay type: cell-based
[3] = system: non-replicating Mtb H37Rv (pFCA-luxAB); assay type: cell-based, M. tuberculosis H37Rv; conditions: for MICLORA/MICMABA: ratio of LORA MIC to MABA MIC

CCCCc1ccc(NC(=O)C2=CCN(C)[C@@H]([C@H](O[C@@H]3O[C@H](CN)[C@@H](O)[C@H]3O)[C@H]3O[C@@H](n4ccc(=O)[nH]c4=O)[C@H](O)[C@@H]3O)C(=O)N2C)cc1 [CPZEN-45]
WecA inhibition (WecA): inhibit WecA at low concentrations

CO[C@H]1[C@@H](O)[C@H](n2ccc(=O)[nH]c2=O)O[C@@H]1[C@@H](O[C@H]1OC(C(=O)N[C@H]2CCCCNC2=O)=C[C@H](O)[C@@H]1O)C(N)=O [Capuramycin (6), Capuramycin]
WecA enzyme inhibitory activity ([1]; at 20 µg/mL): no WecA enzyme inhibitory activity
inhibition at 0.02 µg/mL ([1]; read-out: WecA inhibition (%)): 0%
inhibition at 2 µg/mL ([1]; read-out: WecA inhibition (%)): 0%
inhibition at 20 µg/mL ([1]; read-out: WecA inhibition (%)): 0%

CCCCCCCCCC(=O)O[C@@H]1[C@H](OC)[C@@H]([C@@H](O[C@H]2OC(C(=O)N[C@H]3CCC[C@@H](C)NC3=O)=C[C@H](O)[C@@H]2O)C(N)=O)O[C@H]1n1ccc(=O)[nH]c1=O [SQ641 (8)]
WecA enzyme inhibitory activity [1]: no WecA enzyme inhibitory activity

CC(=O)N[C@H]1[C@@H](OP(=O)(O)OP(=O)(O)OC[C@H]2O[C@@H](n3ccc(=O)[nH]c3=O)[C@H](O)[C@@H]2O)O[C@H](CO)[C@@H](O)[C@@H]1O [UDP-GlcNAc]
Km (M. smegmatis WecA (P-60); 140 µM exogenous decaprenyl phosphate (C50-P)): 110 µM

COC1C(C(OC2OC(C(=O)NC3CCCCNC3=O)=CC(O)C2O)C(N)=O)OC(n2ccc(=O)[nH]c2=O)C1OC (centres unmarked) [UT-01320 (12)]
Bactericidal effect against intracellular Mtb (words, comparison with TB drugs) ([2]; 2x and 4x MIC, up to 72h, J774A.1, listed as 12): equal to those of capreomycin; also recorded: faster killing effect than rifampicin
Time to kill Mtb in infected macrophages ([2]; x2 MICLORA, […]): ≤ 72 h
IC50 against M. smegmatis wecA (M. smegmatis WecA): 0.0507 µg/mL (≈ 0.0869 µM)
MurX enzyme inhibitory activity (MurX; even at 400 µg/mL, as previously reported): did not exhibit MurX enzyme inhibitory activity
MIC (MABA), replicating Mtb (M. tuberculosis): 1.5 µg/mL (≈ 2.57 µM)
WecA enzyme inhibitory activity [1]: inhibited completely
WecA inhibition (%) obtained via HPLC [1]: 100 (100) %
Effectiveness in non-replicating Mtb (Wayne model) (non-replicating Mtb): confirmed
MIC (LORA), non-replicating Mtb ([3]; low-oxygen conditions): 2.58 µg/mL (≈ 4.42 µM)
MICLORA/MICMABA [3]: 1.72

CO[C@H]1/C=C/O[C@@]2(C)Oc3c(C)c(O)c4c(O)c(c(/C=N/N5CCN(C)CC5)c(O)c4c3C2=O)NC(=O)/C(C)=C\C=C\[C@H](C)[C@H](O)[C@@H](C)[C@@H](O)[C@@H](C)[C@H](OC(C)=O)[C@@H]1C [rifampicin, reference compound]
MICLORA/MICMABA [3]: 7.35

Decaprenyl-P-P-Glucosamine-C6-FITC [C50-P-P-Glucosamine-C6-FITC (3)]
Vmax for C50-P-P-Glucosamine-C6-FITC synthesis (M. smegmatis WecA (P-60)): 0.404 µM/min
Vmax for C50-P-P-Glucosamine-C6-FITC synthesis (M. smegmatis WecA (P-60); listed as C50-P-P-Glucosamine-C6-FITC): 0.4041 µM/min

Tunicamycin [Tunicamycin (5), reference compound]
IC50 against M. smegmatis wecA (M. smegmatis WecA; UV-Vis dose-response curve): 0.59 µg/mL
IC50 against MurX (MurX): 2.31 µg/mL

UDP-Glucosamine-C6-FITC [UDP-Glucosamine-C6-FITC (1)]
Km (M. smegmatis WecA (P-60); with undecaprenyl phosphate): 196 µM
